In paper doi:10.1101/2021.07.14.452003v1 (biorxiv, 2021):

Target: M. tuberculosis RnhC (Mt RnhC; Rv2228c; M. tuberculosis RNase HI) (Mycobacterium tuberculosis, UniProt P9WLH5)
Experiment: biochemical

Chain of M. tuberculosis RnhC (Mt RnhC; Rv2228c; M. tuberculosis RNase HI) (P9WLH5 whole entry): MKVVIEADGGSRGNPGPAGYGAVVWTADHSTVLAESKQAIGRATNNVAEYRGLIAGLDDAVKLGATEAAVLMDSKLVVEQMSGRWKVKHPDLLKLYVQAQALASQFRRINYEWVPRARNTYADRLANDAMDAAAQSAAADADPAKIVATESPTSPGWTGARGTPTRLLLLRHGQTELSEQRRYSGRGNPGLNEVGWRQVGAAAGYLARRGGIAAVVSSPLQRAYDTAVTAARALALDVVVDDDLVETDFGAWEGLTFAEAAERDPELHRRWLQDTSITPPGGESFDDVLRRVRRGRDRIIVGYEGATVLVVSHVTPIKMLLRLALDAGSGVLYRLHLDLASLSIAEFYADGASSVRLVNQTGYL

SMILES | IC50
Oc1ccc(-c2csc(Nc3ccccn3)n2)cc1O [NSC353720] | 12 µM
COc1ccc(C2COc3cc(O)c(O)cc3C2)cc1 (stereo not shown) [NSC600285] | 17 µM
CC(C)c1ccc(O)c(=O)c(O)c1 [NSC18806] | 32 µM
O=S(=O)(N/N=C/c1c(O)ccc2ccccc12)c1cc(Cl)c(Cl)cc1Cl [NSC99726] | 45 µM
